Tested on: CamASNase
Test: initial rates at varied L-asparagine, Lineweaver-Burk
Type: biochemical, Chryseomicrobium amylolyticum
Settings: pH 7.4, 37 °C; L-asparagine 1 to 80 µM

- Km: 6.36 µM
SMILES: NC(=O)C[C@H](N)C(=O)O [L-asparagine]

— PMC12287261 (Scientific Reports, 2025)
